Data as given in patent US12480137B2, “Plants having increased tolerance to herbicides” (BASF SE, priority 2014, dated 2025).

Key:
Assay type in all cases: in vivo, Arabidopsis thaliana
[1] = tested on: Cesa1_G1013R, fpx2-1 mutant line; assay: Greenhouse phytotox, pre-emergent treatment
Outline: (§1)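 Greenhouse tolerance test on M2/M3 Arabidopsis; CBI herbicides, e.g. N4-aryl-1,3,5-triazine-2,4-diamines (6-cyclopentyl, 6-(1-fluoro-1-methyl-ethyl) or 6-(2,6-difluorophenyl) variants).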

[2] = tested on: Cesa1_G1009D, fpx2-3 mutant line; assay: Greenhouse phytotox, pre-emergent treatment
Outline: as §1

[3] = tested on: Cesa3_S1040L, fpx1-1 mutant line; assay: Greenhouse phytotox, pre-emergent treatment
Outline: (§2)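 Tolerance to cellulose biosynthesis inhibitors is assessed on M2 or M3 generation Arabidopsis grown in a greenhouse. Example inhibitors are fluorinated N4-aryl triazine-2,4-diamines, including N4-(4-bromo-2,3,5,6-tetrafluoro-phenyl)-6-(1-fluoro-1-methyl-ethyl)-1,3,5-triazine-2,4-diamine.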

[4] = tested on: Cesa1_P1010L, fpx2-2 mutant line; assay: Greenhouse phytotox, pre-emergent treatment
Outline: as §1

[5] = tested on: Cesa3_S1037F, fpx1-2 mutant line; assay: Greenhouse phytotox, pre-emergent treatment
Outline: as §2

[6] = tested on: Cesa3_S983F, fpx1-3 mutant line; assay: Greenhouse phytotox, pre-emergent treatment
Outline: as §2

[7] = tested on: A. thaliana WT L. erecta; assay: Greenhouse phytotox, pre-emergent treatment
Outline: as §2

[8] = tested on: transgenic Arabidopsis plants, construct AtCESA1 wt; assay: Growth inhibition of transgenic Arabidopsis in 48-well plates, tolerance factor from IC50; settings: SEQ ID NO 1, growth inhibition seven to ten days after seeding
Excerpt: (§3) For transformation of Arabidopsis thaliana, wildtype or mutated cellulose synthase sequences based on one of the following sequences SEQ ID NO: 72, 73, 74, 75, 76, or 77, are cloned with standard cloning techniques as described in Sambrook et al. (Molecular cloning (2001) Cold Spring Harbor Laboratory Press) in a binary vector containing resistance marker gene cassette (AHAS) and mutated cellulose synthase sequence (marked as GOI) in between ubiquitin promoter (PcUbi) and nopaline synthase terminator (NOS) sequence. Binary plasmids are introduced to Agrobacterium tumefaciens for plant transformation. Arabidopsis thaliana are transformed with wildtype or mutated cellulose synthase sequences by floral dip method as decribed by McElver and Singh (WO 2008/124495). Transgenic Arabidopsis plants are subjected to TaqMan analysis for analysis of the number of integration loci.
(§4) Transgenic Arabidopsis thaliana plants are assayed for improved tolerance to azine herbicides like e. g. 6-cyclopentyl-N4-(2,3,4,5,6-pentafluorophenyl)-1,3,5-triazine-2,4-diamine in 48-well plates. Therefore, T2 seeds are surface sterilized by stirring for 5 min in ethanol+water (70+30 by volume), rinsing one time with ethanol+water (70+30 by volume) and two times with sterile, deionized water. The seeds are resuspended in 0.1% agar dissolved in water (w/v) Four to five seeds per well are plated on solid nutrient medium consisting of half-strength murashige skoog nutrient solution, pH 5.8 (Murashige and Skoog (1962) Physiologia Plantarum 15: 473-497). Compounds are dissolved in dimethylsulfoxid (DMSO) and added to the medium prior solidification (final DMSO concentration 0.1%). Multi well plates are incubated in a growth chamber at 22° C., 75% relative humidity and 110 μmol Phot*m^−2*s^−1 with 14:10 h light:dark photoperiod. Growth inhibition is evaluated seven to ten days after seeding in comparison to wild type plants. Tolerance factors are calculated based on IC50 values of growth inhibition of transformed versus non-transformed Arabidopsis plants.

[9] = tested on: transgenic Arabidopsis plants, construct AtCESA3_S1040L; assay: as above; settings: SEQ ID NO 3, substitution S1040L, growth inhibition seven to ten days after seeding
Excerpt: as §3, §4

[10] = tested on: transgenic Arabidopsis plants, construct AtCESA3_wt; assay: as above; settings: SEQ ID NO 3, growth inhibition seven to ten days after seeding
Excerpt: as §3, §4

[11] = tested on: Cesa1_G1013R, fpx2-1 mutant line; assay: Greenhouse phytotox, post-emergent treatment 6 weeks after sowing
Description: (§5) Additionally, M2 or M3 Arabidopsis plants are tested for improved tolerance to cellulose biosynthesis-inhibiting herbicides in greenhouse studies (e. g. with the following cellulose biosynthesis-inhibiting herbicides: 6-cyclopentyl-N4-(2,3,4,5,6-pentafluorophenyl)-1,3,5-triazine-2,4-diamine; 6-(1-fluoro-1-methyl-ethyl)-N4-(2,3,4,5,6-pentafluorophenyl)-1,3,5-triazine-2,4-diamine; N4-(4-chloro-3,5,6-trifluoro-2-pyridyl)-6-(1-fluoro-1-methyl-ethyl)-1,3,5-triazine-2,4-diamine; 6-(2,6-difluorophenyl)-N4-(2,3,5,6-tetrafluorophenyl)-1,3,5-triazine-2,4-diamine; N4-(4-bromo-2,3,5,6-tetrafluoro-phenyl)-6-(1-fluoro-1-methyl-ethyl)-1,3,5-triazine-2,4-diamine.

[12] = tested on: Cesa1_G1009D, fpx2-3 mutant line; assay: as above
Description: as §5

[13] = tested on: Cesa3_S1040L, fpx1-1 mutant line; assay: as above
Description: as §5

[14] = tested on: Cesa1_P1010L, fpx2-2 mutant line; assay: as above
Description: as §5

[15] = tested on: Cesa3_S1037F, fpx1-2 mutant line; assay: as above
Description: as §5

[16] = tested on: Cesa3_S983F, fpx1-3 mutant line; assay: as above
Description: as §5

[17] = tested on: A. thaliana WT L. erecta; assay: as above
Description: as §5

Nc1nc(Nc2c(F)c(F)c(F)c(F)c2F)nc(C2CCCC2)n1 [6-cyclopentyl-N4-(2,3,4,5,6-pentafluorophenyl)-1,3,5-triazine-2,4-diamine]
Phytotox value on a scale from 0-100 (100 is 100% damage) ([1]; 0.25 g ai/ha): 5
Phytotox value on a scale from 0-100 (100 is 100% damage) ([1]; 0.98 g ai/ha): 15
Phytotox value on a scale from 0-100 (100 is 100% damage) ([1]; 3.91 g ai/ha): 25
Phytotox value on a scale from 0-100 (100 is 100% damage) ([1]; 15.63 g ai/ha): 15
Phytotox value on a scale from 0-100 (100 is 100% damage) ([2]; 0.25 g ai/ha): 5
Phytotox value on a scale from 0-100 (100 is 100% damage) ([2]; 0.98 g ai/ha): 25
Phytotox value on a scale from 0-100 (100 is 100% damage) ([2]; 3.91 g ai/ha): 58
Phytotox value on a scale from 0-100 (100 is 100% damage) ([2]; 15.63 g ai/ha): 88
Phytotox value on a scale from 0-100 (100 is 100% damage) ([3]; 0.25 g ai/ha): 5
Phytotox value on a scale from 0-100 (100 is 100% damage) ([3]; 0.98 g ai/ha): 20
Phytotox value on a scale from 0-100 (100 is 100% damage) ([3]; 3.91 g ai/ha): 25
Phytotox value on a scale from 0-100 (100 is 100% damage) ([3]; 15.63 g ai/ha): 40
Phytotox value on a scale from 0-100 (100 is 100% damage) ([4]; 0.25 g ai/ha): 0
Phytotox value on a scale from 0-100 (100 is 100% damage) ([4]; 0.98 g ai/ha): 33
Phytotox value on a scale from 0-100 (100 is 100% damage) ([4]; 3.91 g ai/ha): 63
Phytotox value on a scale from 0-100 (100 is 100% damage) ([4]; 15.63 g ai/ha): 98
Phytotox value on a scale from 0-100 (100 is 100% damage) ([5]; 0.25 g ai/ha): 0
Phytotox value on a scale from 0-100 (100 is 100% damage) ([5]; 0.98 g ai/ha): 23
Phytotox value on a scale from 0-100 (100 is 100% damage) ([5]; 3.91 g ai/ha): 15
Phytotox value on a scale from 0-100 (100 is 100% damage) ([5]; 15.63 g ai/ha): 5
Phytotox value on a scale from 0-100 (100 is 100% damage) ([6]; 0.25 g ai/ha): 0
Phytotox value on a scale from 0-100 (100 is 100% damage) ([6]; 0.98 g ai/ha): 5
Phytotox value on a scale from 0-100 (100 is 100% damage) ([6]; 3.91 g ai/ha): 20
Phytotox value on a scale from 0-100 (100 is 100% damage) ([6]; 15.63 g ai/ha): 40
Phytotox value on a scale from 0-100 (100 is 100% damage) ([7]; 0.25 g ai/ha): 38
Phytotox value on a scale from 0-100 (100 is 100% damage) ([7]; 0.98 g ai/ha): 80
Phytotox value on a scale from 0-100 (100 is 100% damage) ([7]; 3.91 g ai/ha): 99
Phytotox value on a scale from 0-100 (100 is 100% damage) ([7]; 15.63 g ai/ha): 100
Relative tolerance rate (non-transgenic = 1.0) [8]: 1
Relative tolerance rate (non-transgenic = 1.0) [9]: 1
Relative tolerance rate (non-transgenic = 1.0) [10]: 1
Phytotox value on a scale from 0-100 (100 is 100% damage) ([11]; 7.88 g ai/ha): 38
Phytotox value on a scale from 0-100 (100 is 100% damage) ([11]; 15.75 g ai/ha): 55
Phytotox value on a scale from 0-100 (100 is 100% damage) ([11]; 31.5 g ai/ha): 65
Phytotox value on a scale from 0-100 (100 is 100% damage) ([11]; 63 g ai/ha): 80
Phytotox value on a scale from 0-100 (100 is 100% damage) ([12]; 7.88 g ai/ha): 45
Phytotox value on a scale from 0-100 (100 is 100% damage) ([12]; 15.75 g ai/ha): 63
Phytotox value on a scale from 0-100 (100 is 100% damage) ([12]; 31.5 g ai/ha): 73
Phytotox value on a scale from 0-100 (100 is 100% damage) ([12]; 63 g ai/ha): 75
Phytotox value on a scale from 0-100 (100 is 100% damage) ([13]; 7.88 g ai/ha): 0
Phytotox value on a scale from 0-100 (100 is 100% damage) ([13]; 15.75 g ai/ha): 5
Phytotox value on a scale from 0-100 (100 is 100% damage) ([13]; 31.5 g ai/ha): 35
Phytotox value on a scale from 0-100 (100 is 100% damage) ([13]; 63 g ai/ha): 68
Phytotox value on a scale from 0-100 (100 is 100% damage) ([14]; 7.88 g ai/ha): 63
Phytotox value on a scale from 0-100 (100 is 100% damage) ([14]; 15.75 g ai/ha): 70
Phytotox value on a scale from 0-100 (100 is 100% damage) ([14]; 31.5 g ai/ha): 78
Phytotox value on a scale from 0-100 (100 is 100% damage) ([14]; 63 g ai/ha): 93
Phytotox value on a scale from 0-100 (100 is 100% damage) ([15]; 7.88 g ai/ha): 55
Phytotox value on a scale from 0-100 (100 is 100% damage) ([15]; 15.75 g ai/ha): 58
Phytotox value on a scale from 0-100 (100 is 100% damage) ([15]; 31.5 g ai/ha): 70
Phytotox value on a scale from 0-100 (100 is 100% damage) ([15]; 63 g ai/ha): 78
Phytotox value on a scale from 0-100 (100 is 100% damage) ([16]; 7.88 g ai/ha): 25
Phytotox value on a scale from 0-100 (100 is 100% damage) ([16]; 15.75 g ai/ha): 65
Phytotox value on a scale from 0-100 (100 is 100% damage) ([16]; 31.5 g ai/ha): 55
Phytotox value on a scale from 0-100 (100 is 100% damage) ([16]; 63 g ai/ha): 73
Phytotox value on a scale from 0-100 (100 is 100% damage) ([17]; 7.88 g ai/ha): 68
Phytotox value on a scale from 0-100 (100 is 100% damage) ([17]; 15.75 g ai/ha): 80
Phytotox value on a scale from 0-100 (100 is 100% damage) ([17]; 31.5 g ai/ha): 78
Phytotox value on a scale from 0-100 (100 is 100% damage) ([17]; 63 g ai/ha): 98
